Experimental data published in patent US8084469B2, “Substituted piperidines” (Bayer Pharma Aktiengesellschaft, priority 2009, dated 2011).

Molecular target: T1, human protease activated receptor 1 (PAR-1) (Homo sapiens, UniProt P25116)
T1 construct: the cell stably expresses the endogenous human PAR-1 receptor; endogenous in cells; host or cells: HEK293-derived recombinant cell line; only the aequorin reporter is recombinant
T1 sequence (P25116 22-425): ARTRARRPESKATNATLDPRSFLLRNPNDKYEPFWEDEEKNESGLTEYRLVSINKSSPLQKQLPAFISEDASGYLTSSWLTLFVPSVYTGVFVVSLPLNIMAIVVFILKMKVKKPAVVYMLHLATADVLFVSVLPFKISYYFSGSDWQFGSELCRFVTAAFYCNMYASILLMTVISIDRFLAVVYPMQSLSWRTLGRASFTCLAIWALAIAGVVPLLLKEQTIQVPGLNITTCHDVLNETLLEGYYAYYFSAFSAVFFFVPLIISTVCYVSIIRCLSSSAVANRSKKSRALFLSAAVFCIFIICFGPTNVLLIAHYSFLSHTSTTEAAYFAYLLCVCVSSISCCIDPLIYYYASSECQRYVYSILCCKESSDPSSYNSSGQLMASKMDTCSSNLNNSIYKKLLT
Experiment: Cellular functional in vitro test (aequorin luminescence in recombinant HEK293 PAR-1 test cell)
Format: cell-based
Settings: PAR-1 test cell (HEK293-derived), PAR-1 agonist at EC50 concentration, aequorin light signal
Text: Cellular Functional In Vitro Test
A recombinant cell line is used to identify antagonists of the human protease activated receptor 1 (PAR-1) and to quantify the activity of the substances described herein. The cell is originally derived from a human embryonal kidney cell (HEK293; ATCC: American Type Culture Collection, Manassas, Va. 20108, USA). The test cell line constitutively expresses a modified form of the calcium-sensitive photoprotein aequorin which, after reconstitution with the cofactor coelenterazine, emits light when the free calcium concentration in the inner mitochondrial compartment is increased (Rizzuto R, Simpson A W, Brini M, Pozzan T.; Nature 1992, 358, 325-327). Additionally, the cell stably expresses the endogenous human PAR-1 receptor and the endogenous purinergic receptor P2Y2. The resulting PAR-1 test cell responds to stimulation of the endogenous PAR-1 or P2Y2 receptor with an intracellular release of calcium ions, which can be quantified through the resulting aequorin luminescence with a suitable luminometer (Milligan G, Marshall F, Rees S, Trends in Pharmacological Sciences 1996, 17, 235-237).
For the testing of the substance specificity, the effect thereof after activation of the endogenous PAR-1 receptor is compared with the effect after activation of the endogenous purinergic P2Y2 receptor which utilizes the same intracellular signal path.
Test procedure: The cells are plated out two days (48 h) before the test in culture medium (DMEM F12, supplemented with 10% FCS, 2 mM glutamine, 20 mM HEPES, 1.4 mM pyruvate, 0.1 mg/ml gentamycin, 0.15% Na bicarbonate; BioWhittaker Cat.# BE04-687Q; B-4800 Verviers, Belgium) in 384-well microtitre plates and kept in a cell incubator (96% atmospheric humidity, 5% v/v CO2, 37° C.). On the day of the test, the culture medium is replaced by a tyrode solution (in mM: 140 sodium chloride, 5 potassium chloride, 1 magnesium chloride, 2 calcium chloride, 20 glucose, 20 HEPES), which additionally contains the cofactor coelenterazine (25 μM) and glutathione (4 mM), and the microtitre plate is then incubated for a further 3-4 hours. The test substances are then pipetted onto the microtitre plate, and 5 minutes after the transfer of the test substances into the wells of the microtitre plate the plate is transferred into the luminometer, a PAR-1 agonist concentration which corresponds to EC50 is added and the resulting light signal is immediately measured in the luminometer. To distinguish an antagonist substance action from a toxic action, the endogenous purinergic receptor is immediately subsequently activated with agonist (ATP, final concentration 10 μM) and the resulting light signal is measured.

IC50	Structure (SMILES)
14.3 nM	O=C(N1CCOCC1)N1CC(c2ccc(C(F)(F)F)cc2)CC(c2nc(NC3CC3)no2)C1 (racemic) [Example 9, {3-[3-(Cyclopropylamino)-1,2,4-oxadiazol-5-yl]-5-[4-(trifluoromethyl)phenyl]piperidin-1-yl}-(morpholin-4-yl)methanone]
69.4 nM	CCN(CCO)c1noc(C2CC(c3ccc(C(F)(F)F)cc3)CN(C(=O)N3CCOCC3)C2)n1 (racemic) [Example 16, (3-{3-[Ethyl(2-hydroxyethyl)amino]-1,2,4-oxadiazol-5-yl}-5-[4-(trifluoromethyl)phenyl]piperidin-1-yl)(morpholin-4-yl)methanone]
1.7 nM	CC(C)Oc1noc(C2CC(c3ccc(OC(F)(F)F)cc3)CN(C(=O)N3CCSCC3)C2)n1 (racemic) [Example 33, {3-(3-Isopropoxy-1,2,4-oxadiazol-5-yl)-5-[4-(trifluoromethoxy)phenyl]piperidin-1-yl}(thiomorpholin-4-yl)methanone]
35.3 nM	CCOc1noc(C2CC(c3ccc(CC)cc3)CN(C(=O)N3CC(O)C3)C2)n1 (racemic) [Example 35, [3-(3-Ethoxy-1,2,4-oxadiazol-5-yl)-5-(4-ethylphenyl)piperidin-1-yl](3-hydroxyazetidin-1-yl)methanone]
12 nM	CCOc1noc(C2CC(c3ccc(CC(F)(F)F)cc3)CN(C(=O)N3CCS(=O)(=O)CC3)C2)n1 (racemic) [Example 67, (1,1-Dioxidothiomorpholin-4-yl){3-(3-ethoxy-1,2,4-oxadiazol-5-yl)-5-[4-(2,2,2-trifluoroethyl)-phenyl]piperidin-1-yl}methanone]
6.3 nM	CCOc1noc(C2CC(c3ccc(CC)c(F)c3)CN(C(=O)N3CCS(=O)(=O)CC3)C2)n1 (racemic) [Example 101, (1,1-Dioxidothiomorpholin-4-yl)[3-(3-ethoxy-1,2,4-oxadiazol-5-yl)-5-(4-ethyl-3-fluorophenyl)-piperidin-1-yl]methanone]
8.7 nM	CCN(CC)c1noc(C2CC(c3ccc(C(F)(F)F)cc3)CN(C(=O)N3CCOCC3)C2)n1 (single isomer, unassigned) [Example 6, {3-[3-(Diethylamino)-1,2,4-oxadiazol-5-yl]-5-[4-(trifluoromethyl)phenyl]piperidin-1-yl}-(morpholin-4-yl)methanone]
20.6 nM	CCc1ccc(C2CC(c3nc(OCCOC)no3)CN(C(=O)N3CCS(=O)(=O)CC3)C2)cc1 (single isomer, unassigned) [Example 63, (1,1-Dioxidothiomorpholin-4-yl){3-(4-ethylphenyl)-5-[3-(2-methoxyethoxy)-1,2,4-oxadiazol-5-yl]-piperidin-1-yl}methanone]
64.5 nM	CCOc1noc(C2CC(c3ccc(CC(F)(F)F)cc3)CN(C(=O)N3CC[S+]([O-])CC3)C2)n1 (single isomer, unassigned) [Example 66, {3-(3-Ethoxy-1,2,4-oxadiazol-5-yl)-5-[4-(2,2,2-trifluoroethyl)phenyl]piperidin-1-yl}(1-oxidothio-morpholin-4-yl)methanone]
21.1 nM	CCOc1noc(C2CC(c3ccc(CC(F)(F)F)cc3)CN(C(=O)N3CCS(=O)(=O)CC3)C2)n1 (single isomer, unassigned) [Example 69, (1,1-Dioxidothiomorpholin-4-yl){3-(3-ethoxy-1,2,4-oxadiazol-5-yl)-5-[4-(2,2,2-trifluoroethyl)-phenyl]piperidin-1-yl}methanone]
5.1 nM	CCOc1noc(C2CC(c3ccc(CC(F)(F)F)c(F)c3)CN(C(=O)N3CC[S+]([O-])CC3)C2)n1 (single isomer, unassigned) [Example 80, {3-(3-Ethoxy-1,2,4-oxadiazol-5-yl)-5-[3-fluoro-4-(2,2,2-trifluoroethyl)phenyl]piperidin-1-yl}(1-oxidothiomorpholin-4-yl)methanone]
